Consider 23 compounds from US6858741B2, “Alkyl-dihalogenated phenyl-substituted ketoenols useful as pesticides and herbicides” (Bayer Aktiengesellschaft, priority 1995, dated 2005).

Common to all, as to type: in vivo
The subject of assay [1] is green rice leafhopper (Nephotettix cincticeps). Put plainly: Nephotettix test. To be noted: after 6 days; active compound concentration 0.1%; dipped rice seedlings. As for the experimental part:
[table] To produce a suitable preparation of active compound, 1 part by weight of active compound is mixed with the stated amount of solvent and the stated amount of emulsifier, and the concentrate is diluted with water to the desired concentration. Rice seedlings (Oryza sativa) are treated by being dipped into the preparation of active compound of the desired concentration and are infested with the green rice leafhopper (Nephotettix cincticeps) while the seedlings are still moist. After the specified period of time, the destruction in % is determined. 100% means that all the leafhoppers have been killed; 0% means that none of the leafhoppers have been killed.

Another assay deals with test plants. Put plainly: Pre-emergence test/greenhouse. The following applies: greenhouse, 250 g/ha, rated after three weeks vs untreated control, 0%=no action, 100%=total destruction. The method, then: [table] To produce a suitable preparation of active compound, 1 part by weight of active compound is mixed with the stated amount of solvent, the stated amount of emulsifier is added and the concentrate is diluted with water to the desired concentration. Seeds of the test plants are sown in normal soil and, after 24 hours, watered with the preparation of the active compound. It is expedient to keep constant the amount of water per unit area The concentration of the active compound in the preparation is of no importance, only the amount of active compound applied per unit area being decisive. After three weeks, the degree of damage to the plants is rated in % damage in comparison to the development of the untreated control. The figures denote: • 0%=no action (like untreated control) 100%=total destruction [table]

For assay [2], the system named is mustard beetle larvae (Phaedon cochleariae). The experiment in a line: Phaedon larvae test. To be noted: after 7 days; active compound concentration 0.1%; dipped cabbage leaves. As for the experimental part: (§1) [table] To produce a suitable preparation of active compound, 1 part by weight of active compound is mixed with the stated amount of solvent and the stated amount of emulsifier, and the concentrate is diluted with water to the desired concentration. Cabbage leaves (Brassica oleracea) are treated by being dipped into the preparation of the active compound of the desired concentration and are infested with mustard beetle larvae (Phaedon cochleariae) while the leaves are still moist. After the specified period of time, the destruction in % is determined. 100% means that all the beetle larvae have been killed; 0% means that none of the beetle larvae have been killed.

The subject of assay [3] is caterpillars of the diamond-back moth (Plutella maculipennis). The experiment in a line: Plutella test. To be noted: after 7 days; active compound concentration 0.1%; dipped cabbage leaves. As for the experimental part: as §1, with “preparation of active compound” for “preparation of the active compound”, “infested with caterpillars of the diamond-back moth (Plutella maculipennis) while the” for “infested with mustard beetle larvae (Phaedon cochleariae) while the”, “all the caterpillars have been” for “all the beetle larvae have been”, “of the caterpillars have been” for “of the beetle larvae have been”

Assay [4] concerns greenhouse red spider mite or two-spotted spider-mite (Tetranychus urticae). Put plainly: Tetranychus test (OP-resistant/immersion treatment). The following applies: after 13 days; active compound concentration 0.1%; immersion treatment of bean plants. As for the experimental part:
[table] To produce a suitable preparation of active compound, 1 part by weight of active compound is mixed with the stated amount of solvent and the stated amount of emulsifier, and the concentrate is diluted with water to the desired concentrations. Bean plants (Phaseolus vulgaris) which are severely infested with all development stages of the greenhouse red spider mite or two-spotted spider-mite (Tetranychus urticae) are immersed in a preparation of active compound of the desired concentration. After the specified period of time, the destruction in % is determined. 100% means that all the spider mites have been killed; 0% means that none of the spider mites have been killed.

In assay [1], `Cc1cc(Cl)cc(Cl)c1C1=C(O)C2(CCCC(C)C2)NC1=O` (single isomer, unassigned) [Example I-1-a-2] registered a destruction of 100%. Further, in the assay with test plants, the “degree of damage, Alopecurus myosuroides” value is 100%; the “degree of damage, Avena fatua” value is given as 90%; the “degree of damage, Beta vulgaris” value came to 0%; the “degree of damage, Setaria viridis” value worked out at 100%. The destruction in assay [2] is reported as 100%.

In the case of `Cc1cc(Cl)cc(Cl)c1C1=C(O)C2(CCC(C)CC2)NC1=O` (single isomer, unassigned) [Example I-1-a-4], in assay [3], the destruction is recorded as 100%. In addition, in assay [1], the destruction stood at 100%. Also, in the assay on test plants, the “degree of damage, Alopecurus myosuroides” value turned out to be 100%; the “degree of damage, Avena fatua” value came to 100%; the “degree of damage, Beta vulgaris” value worked out at 0%; the “degree of damage, Setaria viridis” value is listed as 100%. Moreover, in the assay on test plants, the “degree of damage, Sinapis arvensis” value was determined as 95%.

`Cc1cc(Cl)c(C2=C(O)C3(CCCC(C)C3)NC2=O)c(Cl)c1` (single isomer, unassigned) [Example I-1-a-8]: the destruction in assay [1] is reported as 100%. Besides, in the assay with test plants, the “degree of damage, Alopecurus myosuroides” value is 100%; the “degree of damage, Avena fatua” value is recorded as 40%; the “degree of damage, Setaria viridis” value is reported as 100%; the “degree of damage, Sinapis arvensis” value turned out to be 100%. Besides, the destruction in assay [2] is 100%.

Consider `CC(=O)OC1=C(c2c(C)cc(Cl)cc2Cl)C(=O)NC12CCCC(C)C2` (single isomer, unassigned) [Example I-1-b-2], for which the destruction in assay [3] was determined as 100%. Moreover, in the assay with test plants, the “degree of damage, Alopecurus myosuroides” value amounted to 100%; the “degree of damage, Avena fatua” value is recorded as 80%; the “degree of damage, Beta vulgaris” value is given as 0%; the “degree of damage, Setaria viridis” value was 100%. Also, the “degree of damage, Sinapis arvensis” value with test plants is 70%.

Regarding `CCOCC(=O)OC1=C(c2c(C)cc(Cl)cc2Cl)C(=O)NC12CCCC(C)C2` (single isomer, unassigned) [Example I-1-b-4], in the assay on test plants, the “degree of damage, Alopecurus myosuroides” value stood at 95%; the “degree of damage, Avena fatua” value came out at 80%; the “degree of damage, Beta vulgaris” value amounted to 0%; the “degree of damage, Setaria viridis” value came out at 100%. For the same compound, the “degree of damage, Sinapis arvensis” value in the assay on test plants is reported as 80%.

In assay [1], `CC(=O)OC1=C(c2c(C)cc(Cl)cc2Cl)C(=O)NC12CCC(C)CC2` (single isomer, unassigned) [Example I-1-b-10] registered a destruction of 100%. In the assay on test plants, the “degree of damage, Alopecurus myosuroides” value worked out at 100%; the “degree of damage, Avena fatua” value amounted to 100%; the “degree of damage, Beta vulgaris” value worked out at 20%; the “degree of damage, Setaria viridis” value is recorded as 100%. The “degree of damage, Sinapis arvensis” value in the assay on test plants amounted to 100%. In assay [4], the “activity (destruction)” value is given as 100%.

As for `Cc1cc(Cl)cc(Cl)c1C1=C(OC(=O)C(C)C)C2(CCC(C)CC2)NC1=O` (single isomer, unassigned) [Example I-1-b-11], in the assay on test plants, the “degree of damage, Alopecurus myosuroides” value is recorded as 95%; the “degree of damage, Avena fatua” value was 40%; the “degree of damage, Beta vulgaris” value is given as 30%; the “degree of damage, Setaria viridis” value worked out at 100%. In addition, in the assay with test plants, the “degree of damage, Sinapis arvensis” value turned out to be 90%.

For the compound `Cc1cc(Cl)cc(Cl)c1C1=C(OC(=O)c2ccc(Cl)cc2)C2(CCC(C)CC2)NC1=O` (single isomer, unassigned) [Example I-1-b-12], in the assay on test plants, the “degree of damage, Alopecurus myosuroides” value is reported as 100%; the “degree of damage, Avena fatua” value stood at 80%; the “degree of damage, Beta vulgaris” value is 20%; the “degree of damage, Setaria viridis” value is listed as 100%. Further, in the assay on test plants, the “degree of damage, Sinapis arvensis” value is given as 95%.

Turning to `COCC(C)C(=O)OC1=C(c2c(C)cc(Cl)cc2Cl)C(=O)NC12CCC(C)CC2` (single isomer, unassigned) [Example I-1-b-13], in the assay on test plants, the “degree of damage, Alopecurus myosuroides” value is listed as 100%; the “degree of damage, Avena fatua” value is 80%; the “degree of damage, Beta vulgaris” value is recorded as 30%; the “degree of damage, Setaria viridis” value turned out to be 100%. Further, the “degree of damage, Sinapis arvensis” value with test plants is on record as 90%.

For `Cc1cc(Cl)c(C2=C(OC(=O)C(C)C)C3(CCCC(C)C3)NC2=O)c(Cl)c1` (single isomer, unassigned) [Example I-1-b-20], in the assay on test plants, the “degree of damage, Alopecurus myosuroides” value is given as 95%; the “degree of damage, Beta vulgaris” value is listed as 30%; the “degree of damage, Setaria viridis” value is recorded as 90%; the “degree of damage, Sinapis arvensis” value came out at 80%.

Consider `CCOC(=O)OC1=C(c2c(C)cc(Cl)cc2Cl)C(=O)NC12CCCC(C)C2` (single isomer, unassigned) [Example I-1-c-2], for which the destruction in assay [3] stood at 100%.

As to `CCOC(=O)OC1=C(c2c(Cl)cc(C)cc2Cl)C(=O)NC12CCC(C)CC2` (single isomer, unassigned) [Example I-1-c-6], in the assay with test plants, the “degree of damage, Alopecurus myosuroides” value came to 100%; the “degree of damage, Avena fatua” value amounted to 100%; the “degree of damage, Setaria viridis” value was 100%; the “degree of damage, Sinapis arvensis” value was 95%.

Regarding `CCOC(=O)OC1=C(c2c(Cl)cc(C)cc2Cl)C(=O)NC12CCCC(C)C2` (single isomer, unassigned) [Example I-1-c-7], in the assay with test plants, the “degree of damage, Alopecurus myosuroides” value is given as 100%; the “degree of damage, Avena fatua” value was determined as 80%; the “degree of damage, Beta vulgaris” value worked out at 0%; the “degree of damage, Setaria viridis” value is recorded as 100%. The “degree of damage, Sinapis arvensis” value in the assay on test plants worked out at 80%.

Compound `Cc1cc(Cl)cc(Cl)c1C1=C(OC(=O)OCC(C)C)C2(CCC(C)CC2)NC1=O` (single isomer, unassigned) [Example I-1-c-13] had a destruction in assay [1] of 100%.

`Cc1cc(Cl)cc(Cl)c1C1=C(O)C2(CCCCC2)NC1=O` [Example I-1-a-3] yielded a destruction in assay [3] of 100%. This compound displayed a destruction in assay [1] of 100%. For the same compound, in the assay with test plants, the “degree of damage, Alopecurus myosuroides” value stood at 100%; the “degree of damage, Beta vulgaris” value is reported as 0%; the “degree of damage, Setaria viridis” value is recorded as 100%; the “degree of damage, Sinapis arvensis” value is 80%.

Take `Cc1cc(Cl)c(C2=C(O)C3(CCCCC3)NC2=O)c(Cl)c1` [Example I-1-a-9]: the destruction in assay [1] and in assay [2] was 100% in each case.

For `Cc1cc(Cl)c(C2=C(O)C(C)(C(C)C)NC2=O)c(Cl)c1` (centres unmarked) [Example I-1-a-11], the destruction in assay [1] and in assay [2] was 100% throughout.

Turning to `Cc1cc(Cl)cc(Cl)c1C1=C(OC(=O)C(C)C)C2(CCCCC2)NC1=O` [Example I-1-b-8], in the assay on test plants, the “degree of damage, Alopecurus myosuroides” value is on record as 95%; the “degree of damage, Avena fatua” value was determined as 50%; the “degree of damage, Beta vulgaris” value was 0%; the “degree of damage, Setaria viridis” value is given as 100%. Further, the “degree of damage, Sinapis arvensis” value in the assay with test plants is 100%.

In turn, `CCOC(=O)OC1=C(c2c(C)cc(Cl)cc2Cl)C(=O)NC12CCCCC2` [Example I-1-c-3] displayed a destruction in assay [1] of 100%. Further, in the assay on test plants, the “degree of damage, Alopecurus myosuroides” value is listed as 80%; the “degree of damage, Avena fatua” value came to 80%; the “degree of damage, Beta vulgaris” value is listed as 30%; the “degree of damage, Setaria viridis” value came to 100%. For the same compound, the “degree of damage, Sinapis arvensis” value with test plants was 100%.

Consider `CCC1(C)SC(=O)C(c2c(C)cc(Cl)cc2Cl)=C1O` (centres unmarked) [Example I-3-a-1], for which the destruction in assay [3] and in assay [2] was 100% in each case.

On to `Cc1cc(Cl)cc(Cl)c1C1=C(O)C2(CCCCC2)SC1=O` [Example I-3-a-3], for which the destruction in assay [3] and in assay [2] was 100% throughout.

Take `Cc1cc(Cl)c(C2=C(OC(=O)OCC(C)C)C3(CCCCC3)SC2=O)c(Cl)c1` [Example I-3-c-1]: in the assay on test plants, the “degree of damage, Amaranthus” value was 70% and the “degree of damage, Beta vulgaris” value was found to be 0%. In addition, in assay [4], the “activity (destruction)” value is on record as 100%.

Regarding `Cc1cc(Cl)c(-c2c(O)c(C)c(C3CCCC3)oc2=O)c(Cl)c1` [I-5-a-7], in the assay with test plants, the “degree of damage, Alopecurus myosuroides” value came to 80%; the “degree of damage, Beta vulgaris” value was 0%; the “degree of damage, Sinapis arvensis” value was 95%.
